Results as given in US20100062961A1, “Good Foaming Creamy or Paste-Like Cleansers Comprising Floor Levels of Long Chain Lipids or Lipid Mimics” (CONOPCO, INC., D/B/A UNILEVER, priority 2008, published 2010).
Blank lines part the entries; values can stand above or below the compound they belong to.

Columns and labels:
[1] = Solubility of lipid in 5% surfactant solution, Method B absorbance at 500 nm; assay type: physicochemical; details: 5% Miracare SLB, pH 6.0, Method B
Excerpt: Stock solutions of lipid in 5% surfactant solution were mixed in a beaker with an overhead mixer at a temperature above the melting point of the lipid for about an hour. The surfactant solution pH was adjusted to the desired range (usually 6 to 6.6) prior to addition of the lipid. Generally, the lipid concentrations in the stock solutions were at 1% to 2% by weight of solution. The stock solutions were allowed to cool to room temperature. These stock solutions were well above the solubility limit of the lipid as evidenced by considerable cloudiness. The stock solution was gently stirred to achieve a uniform suspension of the lipid insoluble matter, and then added to several small vials (approximately 20 ml capacity) in predetermined amounts. […] In some cases, we have determined solubility by analyzing a dilution series of samples using a UV-Vis 96 spectrophotometer (Spectra Max, Model 340pc). The samples of the dilution series were pipeted into a well plate reader and inserted into the spectrophotometer, which measured absorbance at a wavelength of 500 nm. The solubility limit was determined by extrapolating the absorbance readings to the baseline.

[2] = Solubility of lipid in 5% surfactant solution, Method A visual observation; assay type: physicochemical
Excerpt: (room temperature). The solubility is a function of pH, and increases with increasing pH, but the long chain fatty acids and other lipids (e.g., cholesterol and related sterols and ceramides) and lipid mimics (e.g., saturated long chain alcohols) still have limited solubility in the surfactant solutions, especially in the pH range of interest, pH less than or equal to 8. Solubility can be determined by visual observation of a series of solutions that were allowed to equilibrate at room temperature for approximately 48 hours. We also determined solubility by absorbance of light at a particular wavelength, where we have used a UV-Vis 96 spectrophotometer well plate reader (Spectra Max, 340 pc Model) with the wavelength set at 500 nm. […] The surfactant solution pH was adjusted to the desired range (usually 6 to 6.6) prior to addition of the lipid. […] In some cases, we have determined solubility by analyzing a dilution series of samples using a UV-Vis 96 spectrophotometer (Spectra Max, Model 340pc). The samples of the dilution series were pipeted into a well plate reader and inserted into the spectrophotometer, which measured absorbance at a wavelength of 500 nm. The solubility limit was determined by extrapolating the absorbance readings to the baseline. These values are reported in Table 2 as determined by Method B.

[3] = typical anionic surfactant; cited from earlier work
[4] = Krafft point: lowest temperature at which cloudiness is observed in a 1% by weight surfactant solution; assay type: physicochemical; details: 1% by weight solution; upper bound, solution observed clear at stated temperature
Excerpt: The Krafft temperature is the minimum temperature at which surfactants form micelles. […] Below the Krafft temperature, there is no value for the critical micelle concentration (CMC), i.e., surfactant micelles will not form. A portion of the surfactant exists as a precipitate and the mixture of surfactant and water will appear cloudy or have an obvious phase settled at the bottom of a sample below the Krafft temperature. We consider only surfactants or mixtures of surfactants with Krafft temperatures at or below 20° C., so it suffices to verify that the surfactant mixtures of interest are completely soluble at 20° C. We verified this for the commercial surfactant solutions of interest. In particular, we have verified that the Krafft temperature for mixtures of sodium lauryl-1-ether sulfate and cocoamidopropyl betaine, and for mixtures of the commercial blend known as Miracare SLB lies below 20° C.
Our operational definition of Krafft point here is the lowest temperature at which cloudiness is observed in a 1% by weight solution of surfactant. The table indicates the upper bound on Krafft point, i.e., solution observed to be clear at stated temperature.

Compound: CC(C)CCC[C@@H](C)[C@H]1CC[C@H]2[C@@H]3CC=C4C[C@@H](O)CC[C@]4(C)[C@H]3CC[C@]12C [Cholesterol]
Solubility Limit [1]: ~5 × 10^−3 weight fraction of total solution

Compound: CCCCCCCCCCCC(=O)O [Lauric acid]
solubility ([2]; in 5 wt. % SLES1EO/CAPBet solution): approximately 0.08 wt. % | solubility as share of the surfactant weight ([2]; in a 5 wt. % surfactant solution): approximately 16%

Compound: CCCCCCCCCCCCOS(=O)(=O)[O-].[Na+] [sodium dodecyl sulfate]
Krafft temperature [3]: 18.4 °C

Krafft T [4]: <15 °C
Compound: Sodium tridecethsulfate [Trideceth Sulfate (TDS)]
